Two molecules from patent US9937186B2, “Sulfonamides derived from tricyclyl-2-aminocycloalkanols as anticancer agents” (ICAHN SCHOOL OF MEDICINE AT MOUNT SINAI, priority 2014, dated 2018) can be followed below.

Data set [1] relates to H1650 lung cancer cells. Kind of data set: Cell viability assay (MTT), H1650 lung cancer cells. The class given is cell-based. To be noted: Homo sapiens, NCI-H1650; H1650 cells. The procedure:
Cell Viability Assays (IC50 Determination)
Cell viability assays were performed according to Denizot, F. and R. Lang, Journal of Immunological Methods, 1986. 89(22): p. 271-277. H1650 lung cancer cells were plated at 150,000 cells per well in a 12 well plate. Twenty-four hours after plating, cells were treated as described with increasing concentrations of drug and control. Forty-eight hours after drug treatment, cells were treated with 100 μL of 3-(4,5-Dimethylthiazol-2-yl)-2,5-diphenyltetrazolium bromide (MTT) and incubated for 2 hours at 37 C. The MTT solution was subsequently replaced with 300 μL of n-propyl alcohol and re-aliquoted to a 96 well plate. Spectrophotometric analysis of each solution was performed using a 96 well plate reader at 600 nm in triplicate.

In data set [2] the test system is H1650 cells. Kind of data set: Colony formation (clonogenic) assay, H1650 cells. Conditions: Homo sapiens, NCI-H1650, 192 h; H1650, harvested 8 days after initial treatment. It is filed as cell-based. How it is done: (§1) Protocol for clonogenic assay follows Sangodkar et al., J Clin Invest 2012; 122:2637-51.
(§2) Cell culture and staining: For both A549luc and H1650 cells, 500 cells are seeded into each well of a 6-well plate and allowed to attach for 24 hours before drug treatment. The following day, cells are treated with either the appropriate dose of drug or an equivalent volume of DMSO (two replicates were treated for each condition). For each condition, depleted media was replaced with fresh media containing the equivalent drug dose four days after initial treatment. Cells are harvested either 7 (A549 luc) or 8 (H1650) days after initial treatment. Briefly, medium is aspirated from each well and the cells are washed twice with ice-cold PBS, then plates are allowed to dry at room temperature for 4 hours. Cells are fixed for one hour in a fixing solution consisting of 10% methanol and 10% glacial acetic acid in distilled water, then stained overnight in 1% (w/v) crystal violet dissolved in methanol. The next day, staining solution is aspirated from the wells and plates are washed gently with distilled water to remove excess stain before colony counting. Colonies are imaged on a ChemiDoc XRS+ (Bio-Rad) and images are exported as 8-bit TIFF files. Colonies are counted using the Colony Counter plugin in ImageJ, with colony size defined as between 4 and 400 square pixels, and minimum circularity set at 0.6. Duplicate wells are averaged to obtain a single value for each condition. Results (number of colonies) for A549 luc cells and results (number of colonies) for H1650 cells may be analyzed separately.

Data set [3] concerns A549luc cells. Kind of data set: Colony formation (clonogenic) assay, A549luc cells. It is filed as cell-based. To be noted: Homo sapiens, 168 h; A549 luc, harvested 7 days after initial treatment. How it is done:
as §1, §2

Data set [4] deals with lung cancer cell line H441. The experiment in a line: In vivo cancer model: subcutaneous xenograft of lung cancer cell line H441, tumor volume. To be noted: oral gavage, 30 days; for Mean Tumor Volume(T) / Median Tumor Volume(T): in mm³ (unit assumed). On the set-up: species or system mice; key to Mean Tumor Volume(T) / Median Tumor Volume(T): tumor volume in mm³. How it is done: (§3) To assess the in vivo effects of the compounds, subcutaneous xenograft of lung cancer cell line H441 was generated. Cells (5×10^6) were injected into the right flank of 6- to 8-week-old male BALB/c nu/nu mice (Charles River, Wilmington, Mass.). Tumor volume was assessed twice a week by caliper measurement. Mice were randomized to treatment groups based on initial tumor volume average of 100 mm^3 per group. Mice were dosed by oral gavage with 15 mg/kg Example 1a QD, 15 mg/kg Example 1a BID, 50 mg/kg Example 1a QD, or 50 mg/kg Example 3a QD. Mouse tumors were measured twice a week for the duration of the study. Mouse body weights were recorded weekly and percentage of mice body weights during treatment was calculated as: weight at each time point/initial weight×100. […] Mice underwent treatment for 30 days and were sacrificed 2 hours after the last dose. Tumors were then excised and cut for both formalin-fixation and snap frozen in liquid nitrogen. […] No statistically significant toxicity was observed as judged from animal body weights of compound treated groups versus vehicle control group as shown in Table B below.

Data set [5] can be described thus: In vivo cancer model: body weights and signs of toxicity. Conditions: for % T/C (Mean body weight) / % T/C (Median body weight) / Mean body weight / Median body weight: oral gavage; for signs of toxicity (mucous diarrhea, abdominal stiffness and weight loss): oral gavage 15 or 50 mg/kg, 30 days, BALB/c nu/nu mice. Further details: species or system mice. How it is done: as §3

[6] abbreviates: 50 mg/kg QD, H441 xenograft mice.

`O=S(=O)(N[C@@H]1CCC[C@H](N2c3ccccc3Oc3ccccc32)[C@H]1O)c1ccc(OC(F)(F)F)cc1` (single isomer, unassigned) [Example 1a]: the GI50 in data set [1] stood at 5 µM; in data set [2] it was 5 µM; in data set [3], 7.5 µM. For the same molecule, the results for the “% T/C (Mean Tumor Volume)” value in data set [4] (15 mg/kg BID), in data set [4] (15 mg/kg QD) and in data set [4] (50 mg/kg QD) were 26.08%, 61.43% and 36.50%, respectively. Moreover, the “% T/C (Median Tumor Volume)” value in data set [4] (15 mg/kg BID) is recorded as 27.37%; in data set [4] (15 mg/kg QD), 60.69%; in data set [4] (50 mg/kg QD), 33.78%. The “Mean Tumor Volume(T)” value in data set [4] (15 mg/kg BID) is recorded as 315.40; in data set [4] (15 mg/kg QD) it was 742.80; in data set [4] (50 mg/kg QD, BALB/c nu/nu mice), 441.37. Also, the “Median Tumor Volume(T)” value in data set [4] (15 mg/kg BID) was determined as 274.43; in data set [4] (15 mg/kg QD), 608.58; in data set [4] (50 mg/kg QD), 338.69. Besides, the “% T/C (Mean body weight)” value in data set [5] (15 mg/kg BID) worked out at 95.27%; in data set [5] (15 mg/kg QD), 95.27%; in data set [5] (50 mg/kg QD), 100.59%. Moreover, the entries for the “% T/C (Median body weight)” value in data set [5] (15 mg/kg BID), in data set [5] (15 mg/kg QD) and in data set [5] (50 mg/kg QD) were 99.58%, 93.68% and 99.72%, respectively. Besides, the Mean body weight in data set [5] (15 mg/kg BID) turned out to be 33.20 g; in data set [5] (15 mg/kg QD) it was 33.20 g; in data set [5] (setting [6]), 35.06 g. For the same molecule, the Median body weight in data set [5] (15 mg/kg BID) worked out at 35.45 g; in data set [5] (15 mg/kg QD), 33.35 g; in data set [5] (50 mg/kg QD), 35.50 g. The “signs of toxicity (mucous diarrhea, abdominal stiffness and weight loss)” value in data set [5] is “no adverse signs were observed”.

In data set [1], `O=S(=O)(N[C@@H]1CCC[C@H](n2c3ccccc3c3ccccc32)[C@H]1O)c1ccc(OC(F)(F)F)cc1` (single isomer, unassigned) [Example 3a] returned a GI50 of 10 µM. In data set [2], this molecule displayed a GI50 of 5 µM. In data set [3], this molecule came in with a 50% growth inhibitory concentration (GI50) of 7.5 µM. For the same molecule, in data set [4] (50 mg/kg QD), the “% T/C (Mean Tumor Volume)” value is recorded as 32.13%, the “% T/C (Median Tumor Volume)” value was 37.62% and the “Median Tumor Volume(T)” value is given as 377.21. In data set [4] (50 mg/kg QD, BALB/c nu/nu mice), the “Mean Tumor Volume(T)” value was found to be 388.47. Also, in data set [5] (50 mg/kg QD), the “% T/C (Mean body weight)” value was 93.96%, the “% T/C (Median body weight)” value came to 92.70% and the Median body weight is on record as 33.00 g. In data set [5] (setting [6]), this molecule displayed a Mean body weight of 32.74 g. Moreover, in data set [5], the “signs of toxicity (mucous diarrhea, abdominal stiffness and weight loss)” value is given as “no adverse signs were observed”.
